# Several values for one entry are separate records, joined by “and”; a condition that tells them apart may be missing. Equal values may be shown once. Read-outs that look alike come from different tables or passages of the source.
# Columns and labels:
# prostaglandin e2 [1] = settings: cited from earlier work; for change in serum levels of prostaglandin e2: niceritrol alone, Aspirin® added to niceritrol
# prostaglandin e2 [2] = settings: cited from earlier work; for prostaglandin e2 concentration: nicotine pre-treated cells, highest NSAID concentration (log M=−4), absence of IL-18, basal 0.35 nM, digitised from published graph; for effect on nicotine-induced PGE2 production: nicotine-treated cells
# prostaglandin e2 [3] = settings: cited from earlier work; for effect on nicotine-initiated prostaglandin e2 production: cells treated with 100 mcM nicotine, NSAID 0.1 to 100 mcM; for prostaglandin e2 concentration: nicotine (100 mcM) pre-treated cells, highest NSAID concentration (log M=−4), absence of IL-18, basal 337 pM, digitised from published graph
# [4] = tested on: prostaglandin e2 like substance (PGe2-LS); settings: cited from earlier work; for PGe2-LS release (M±SE): samples treated with indomethacin and the pyridine derivative, control group 0.54±0.06, n=5
# prostaglandin e2 [5] = experiment: serum prostaglandin e2 levels in normal male volunteers after niceritrol and Aspirin® (Nozaki et al. 1987); format: in vivo, human; settings: after administration of niceritrol and Aspirin®; basal 23.3±11.8 pg/ml
# From the text: FIG. 3. is prostaglandin e2 section extracted by inventors from graph of FIG. 1. from publication “Increased compliance of niceritrol treatment by addition of Aspirin®: relationship between changes in prostaglandins and skin flushing.” (Nozaki, S. et al., 1987, Int J Clin Pharmacol Ther Toxicol, v 25, p: 643-7). Inventors marked on said figure extracted by inventors by using UN-SCAN-IT® basal (52.3, 33.6, 26.6, 21.2, 19.1, 18.1, 16.8, 16.0, 15.1, 13.9), and after niceritrol and Aspirin® administration (46.2, 16.6, 42.0, 44.1, 8.2, 11.4, 18.6, 9.9, 27.6, 6.2) concentration coordinates (pg/ml) of prostaglandin e2. […]
# Inventors used UN-SCAN-IT® to obtain digital concentration data from prostaglandin e2 section of the graph from the FIG. 1. of the publication (FIG. 3.). The obtained by inventors serum basal (52.3, 33.6, 26.6, 21.2, 19.1, 18.1, 16.8, 16.0, 15.1, 13.9), and after niceritrol and Aspirin® administration (46.2, 16.6, 42.0, 44.1, 8.2, 11.4, 18.6, 9.9, 27.6, 6.2) prostaglandin e2 digital levels (pg/ml) were statistically analysed using paired t-test.
# [6] = tested on: radioimmunoassayed prostaglandin E (R-PGE); settings: basal 21±10 pg/ml, cited from earlier work
# [7] = tested on: radioimmunoassayed prostaglandin E (R-PGE); settings: naproxen and nicotinic acid, basal 35.6±29.8, cited from earlier work
compound,measurement,setting,value
CC(=O)Oc1ccccc1C(=O)O [Aspirin®],change in serum levels of prostaglandin e2,prostaglandin e2 [1],significantly decreased
CS(=O)(=O)Nc1ccc([N+](=O)[O-])cc1OC1CCCCC1 [NS398],prostaglandin e2 concentration,prostaglandin e2 [2],0.55 nM
same,effect on nicotine-induced PGE2 production,prostaglandin e2 [2],inhibited
same,effect on nicotine-initiated prostaglandin e2 production,prostaglandin e2 [3],suppressed
same,prostaglandin e2 concentration,prostaglandin e2 [3],761 pM
COc1ccc2c(c1)c(CC(=O)O)c(C)n2C(=O)c1ccc(Cl)cc1 [indomethacin],prostaglandin e2 concentration,prostaglandin e2 [2],0.50 nM
same,effect on nicotine-induced PGE2 production,prostaglandin e2 [2],inhibited
same,effect on nicotine-initiated prostaglandin e2 production,prostaglandin e2 [3],suppressed
same,prostaglandin e2 concentration,prostaglandin e2 [3],768 pM
same,effect on PGe2-LS release stimulated by pyridine derivatives,[4]; indomethacin treatment,reduced
O=C(OCC(COC(=O)c1cccnc1)(COC(=O)c1cccnc1)COC(=O)c1cccnc1)c1cccnc1 [niceritrol],mean (M±SD) serum prostaglandin e2 concentration,prostaglandin e2 [5],23.1 ± 15.8 pg/mL
same,"serum prostaglandin e2 level, individual volunteers","prostaglandin e2 [1]; after niceritrol and Aspirin® administration, 10 normal male volunteers, digitised from published graph",46.2 pg/mL and 6.2 pg/mL and 16.6 pg/mL and 42.0 pg/mL and 44.1 pg/mL and 8.2 pg/mL and 11.4 pg/mL and 18.6 pg/mL and 9.9 pg/mL and 27.6 pg/mL
same,change in serum levels of prostaglandin e2,prostaglandin e2 [1],significantly increased
O=C(O)c1cccnc1 [nicotinic acid],plasma concentration of R-PGE (M±SE),[6]; infusion of nicotinic acid,49 ± 7 pg/mL
same,plasma concentration of R-PGE (M±SE),"[6]; nicotinic acid infusion after naproxen treatment, n=3",8 ± 2 pg/mL
same,actual release of R-PGE (M±SE),[7]; 5 min,8.2±13.8 pg/100 ml tissue×min
same,actual release of R-PGE (M±SE),[7]; 10 min,10.6±16.6 pg/100 ml tissue×min
same,actual release of R-PGE (M±SE),[7]; 20 min,18.8±16.2 pg/100 ml tissue×min
same,actual release of R-PGE (M±SE),[7]; 60 min,15.1±13 pg/100 ml tissue×min
same,PGe2-LS release (M±SE),[4],0.63 ± 0.03 ng/min
OCc1cccnc1 [nicotinyl alcohol],PGe2-LS release (M±SE),[4],0.52 ± 0.06 ng/min
CN(C)C(=O)Oc1ccc[n+](C)c1 [pyridostigmine bromide],PGe2-LS release (M±SE),[4],0.50 ± 0.06 ng/min
Cc1ncc(CO)c(CO)c1O.Cl [pyridoxine hydrochloride],PGe2-LS release (M±SE),[4],0.44 ± 0.02 ng/min
